“And” between values parts separate entries of the source, which are not always exact repeats. Equal values may be shown once.
Legend:
SGLT1 [1] = biological target: T1, SGLT1 (Homo sapiens, UniProt P13866); experiment: SGLT1 inhibition with varied substrate AMG concentration (Dixon / L-B plot); type: cell-based; conditions: for Inhibition mechanism, SGLT1: CHO-SGLT1, varied AMG concentration; for Ki: from slope of L-B plot, CHO-SGLT1
T1 construct: expressed in transfected cells
T1 sequence (P13866 1-664): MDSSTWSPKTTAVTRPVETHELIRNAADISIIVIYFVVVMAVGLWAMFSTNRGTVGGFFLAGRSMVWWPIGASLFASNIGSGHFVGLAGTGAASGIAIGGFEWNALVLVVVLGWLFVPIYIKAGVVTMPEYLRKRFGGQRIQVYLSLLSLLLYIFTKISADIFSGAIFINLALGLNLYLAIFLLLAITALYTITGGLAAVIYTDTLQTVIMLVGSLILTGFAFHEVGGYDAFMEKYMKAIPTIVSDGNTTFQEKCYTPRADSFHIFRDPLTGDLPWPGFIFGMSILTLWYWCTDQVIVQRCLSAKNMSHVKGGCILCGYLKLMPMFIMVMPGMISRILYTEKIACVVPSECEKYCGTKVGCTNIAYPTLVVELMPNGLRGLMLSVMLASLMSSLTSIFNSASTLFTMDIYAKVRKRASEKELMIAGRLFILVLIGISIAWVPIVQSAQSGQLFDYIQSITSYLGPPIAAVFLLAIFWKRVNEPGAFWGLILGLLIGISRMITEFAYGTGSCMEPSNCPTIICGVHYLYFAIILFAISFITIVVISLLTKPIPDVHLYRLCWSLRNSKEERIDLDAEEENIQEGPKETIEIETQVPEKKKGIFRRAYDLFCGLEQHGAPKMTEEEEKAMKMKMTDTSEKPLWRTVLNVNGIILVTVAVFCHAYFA
Protocol: From these, the inhibition mechanism was confirmed, and the inhibition constant was calculated.

SGLT1 [2] = biological target: T1, SGLT1; experiment: Inhibition of [14C]AMG uptake in SGLT1-overexpressing CHO cells; type: cell-based; conditions: IC50 (nM) SGLT1 mean ± SD (n = 3), 10 μM [14C]AMG, 2 h, 37° C.
Protocol: An SGLT1-overexpressing cell line (CHO-SGLT1 stable cells) and mock cells (CHO-mock cells) were cultured to reach 80% confluency, and then the cells were seeded in 96-well plates at 1×10^5 cells/well.
After 24 hours, the medium was removed, and a pre-incubation buffer [10 mM hydroxyethylpiperazine ethane sulfonic acid (HEPES), 5 mM Tris, 140 mM choline chloride, 2 mM KCl, 1 mM CaCl2), 1 mM MgCl2, pH 7.4] was added, and the cells were cultured for one hour.
After one hour, the pre-incubation buffer was removed, and an incubation buffer [10 mM HEPES, 5 mM Tris, 140 mM NaCl, 2 mM KCl, 1 mM CaCl2), 1 mM MgCl2, pH 7.4] containing 10 μM [^14C] methyl α-D-glucopyranoside (AMG), a substrate of SGLT1, and inhibitory evaluation substances at various concentrations was added and allowed to react in a thermo micro mixer at 37° C. for two hours.
After a preset time, the cells were washed twice with 200 μL of ice-cold washing buffer [10 mM HEPES, 5 mM Tris, 140 mM choline chloride, 2 mM KCl, 1 mM CaCl2), 1 mM MgCl2, 100 mM AMG, pH 7.4].
After removing the medium, 40 μL of 10% sodium dodecyl sulfate (SDS) solution was added to lyse the cells, and then the samples were transferred to a measurement plate of a liquid scintillation counter, and 150 μL of OptiPhase Supermix®, an isotope measurement cocktail solution, was added, and the cells were incubated overnight to ensure that the cell solution was homogeneously mixed with the cocktail solution.
[^14C]AMG in the samples was measured using the liquid scintillation counter.
At this time, the inhibitory effect Sigmoid Emax model was used, and the WinNonlin program (ver. 2.0) was utilized. All data values were expressed as the mean±standard deviation (SD) of three independent experiments.

human hepatocytes = conditions: cited from earlier work
SGLT1 [3] = biological target: T1, SGLT1; experiment: Whole-cell patch clamp glucose current, binding and dissociation, CHO-SGLT1; type: cell-based; conditions: for Dissociation degree T1/2, off (s), SGLT1: washout
Protocol: When SGLT1- and SGLT2-overexpressing cell lines (CHO-SGLT1, CHO-SGLT2 stable cells) were cultured to reach 60% confluency, the cells were treated with 0.05% trypsin to detach the cells from the bottom of the plate, suspended in 200 μL of culture medium, and used at room temperature.
Glucose reabsorption is induced by the Na^+ electrochemical potential gradient in the kidneys via SGLT2, and glucose diffuses across the cell membrane into the blood via glucose transporter 2 (GLUT-2), which enables facilitated glucose transport. While one Na^+ ion is absorbed per glucose molecule through SGLT2, two Nations are absorbed per glucose molecule through SGLT1. Therefore, by varying the composition of the buffer, only the glucose current was recorded, excluding the Na^+ current.
The experiment was conducted as described below.
1) Using a Narishige puller, a glass micropipette was made in two stages of 62.7° C. and 57° C., filled with an internal solution (145 mM CsCl, 5 mM NaCl, 10 mM HEPES, 11 mM ethylene glycol-bis(2-aminoethylether)-N,N,N′,N′-tetraacetic acid (EGTA), pH 7.2), and then inserted into the Ag/AgCl2 electrode of the patch clamp head-stage.
2) SGLT1 or SGLT2 cells were seeded on a chamber which was coated with poly-L-lysine in advance, and then an external solution (150 mM NaCl, 10 mM HEPES, 1 mM CaCl2), 1 mM MgCl2, pH 7.4) was flowed to ensure that the cells were sufficiently submerged. A temperature control device was used to maintain the temperature of the chamber at 36.5±0.5° C.
3) Using a micromanipulator, the glass micropipette was attached to the cell membrane to create a giga-ohm seal, which was then ruptured to detach the cell membrane (whole-cell mode, 3 to 5 MΩ).
4) The cells were fixed at −60 mV (holding potential), and the current [I^total current (Na^+/Glucose current (pA))] was measured in a gap-free data acquisition mode.
5) The external solution was continuously flowed into the chamber containing the cells, and the current (I^total) was recorded for about 30 seconds to 1 minute (stabilization), and then the external solution with added glucose (Na^+/Glucose external) (150 mM NaCl, 10 mM HEPES, 1 mM CaCl2), 1 mM MgCl2, 100 mM glucose, pH 7.4) was flowed to record the glucose current (I^glucose). Then, the cells were exposed to the external solution with added glucose containing one concentration of the compound for two minutes, and the glucose current suppressed by the compound was recorded.
7) After confirming the recovery of the current, the solution was replaced with a sodium-free external solution (Na^+-free external) (150 mM Choline-Cl, 1 mM CaCl2), 1 mM MgCl2, pH 7.4) and the Na^+ current was recorded. After the current was stabilized, the solution was replaced with the external solution to record the current in the resting state when the cells were not stimulated, thereby securing the reliability of the experimental system.
For statistical analysis of data, pCLAMP10.4 (Molecular Devices, LLC, San Jose, CA, USA) or Origin6.0 (OriginLab, Northampton, MA, USA) was used.
The test results were expressed as the mean±SD of the mean. Statistical significance was verified using the nonparametric Kruskal-Wallis test using Statistical Package for the Social Sciences (SPSS) for Windows (version 26.0, IBM Corp., Armonk, NY, USA). The significance level was set at p<0.05.

OC[C@H]1O[C@@H](c2cc(Cc3ccc(C4(O)CC4)cc3)c(Cl)c3c2CCO3)[C@H](O)[C@@H](O)[C@@H]1O [M2, (2S,3R,4R,5S,6R)-2-(7-chloro-6-(4-(1-hydroxycyclopropyl)benzyl)-2,3-dihydrobenzofuran-4-yl)-6-(hydroxymethyl)tetrahydro-2H-pyran-3,4,5-triol]
Inhibition mechanism, SGLT1 (SGLT1 [1]): Competitive inhibition
Ki (SGLT1 [1]): 1870 nM
IC50 (SGLT1 [2]): 1220 ± 165 nM
Enzymes catalyzing formation of the metabolite (human hepatocytes): CYP3A4 and CYP2C19
Binding affinity T1/2, on (s), SGLT1 (SGLT1 [3]; treatment concentration 20 μM): 15.7 ± 6.5 s
Dissociation degree T1/2, off (s), SGLT1 (SGLT1 [3]; treatment concentration 20 μM): 23.5 s and 23.5 ± 10.4 s

OC[C@H]1O[C@@H](c2cc(Cc3ccc(C4CC4)cc3)c(Cl)c3c2CC(O)O3)[C@H](O)[C@@H](O)[C@@H]1O (stereo partly drawn) [M1, (2S,3R,4R,5S,6R)-2-(7-chloro-6-(4-cyclopropylbenzyl)-2-hydroxy-2,3-dihydrobenzofuran-4-yl)-6-(hydroxymethyl)tetrahydro-2H-pyran-3,4,5-triol]
Inhibition mechanism, SGLT1 (SGLT1 [1]): Competitive inhibition
Ki (SGLT1 [1]): 84.8 nM
IC50 (SGLT1 [2]): ~28.4 nM and 28.4 nM
Enzymes catalyzing formation of the metabolite (human hepatocytes): CYP3A4 and CYP2C19
Dissociation from SGLT1, times slower than dapagliflozin (SGLT1 [3]; ratio of T1/2,off): 1.96 times
Dissociation from SGLT1, times slower than enavogliflozin (SGLT1 [3]; ratio of T1/2,off): 1.7 times
Binding affinity T1/2, on (s), SGLT1 (SGLT1 [3]; treatment concentration 5 μM): 18.8 ± 4.1 s
Dissociation degree T1/2, off (s), SGLT1 (SGLT1 [3]; treatment concentration 5 μM): 59.8 s and 59.8 ± 11.5*^, + s

OC[C@H]1O[C@@H](c2cc(Cc3ccc(C4CC4)cc3)c(Cl)c3c2CCO3)[C@H](O)[C@@H](O)[C@@H]1O [Enavogliflozin, (2S,3R,4R,5S,6R)-2-(7-chloro-6 (4-cyclopropylbenzyl)-2,3-dihydrobenzofuran-4-yl)-6-(hydroxymethyl)tetrahydro-2H-pyran-3,4,5-triol]
Inhibition mechanism, SGLT1 (SGLT1 [1]): Competitive inhibition
Ki (SGLT1 [1]): 495 nM
IC50 (SGLT1 [2]): 861 ± 59.4 nM
Number of metabolites produced in human hepatocytes (human hepatocytes; M1, M2, M3, U1, U2): five
Binding affinity T1/2, on (s), SGLT1 (SGLT1 [3]; treatment concentration 5 μM): 11.5 ± 4.2 s
Dissociation degree T1/2, off (s), SGLT1 (SGLT1 [3]; treatment concentration 5 μM): 34.9 ± 9.6 s
Dissociation degree T1/2, off (s), SGLT1 (SGLT1 [3]; treatment concentration 5 μM, listed as enavogliflozin): 34.9 s
